Assay results: publication PMC11542186, “Pin1 WW Domain Ligand Library Synthesized with an Easy Solid-Phase Phosphorylating Reagent” (Biochemistry, 2024)
Where a SMILES comes first, the peptide text is derived from it. [ ]: non-standard residue; d: D form. The star is where a group is joined. pS = N[CH](COP(=O)(O)O)C(=O)O; Agmatine = N=C(N)NCCCCN*; Morpholide = C1CN(*)CCO1; Piperidide = C1CCN(*)CC1; Pyrrolidide = C1CCN(*)C1

Target: T1, Pin1 WW domain (Pin1–HRP) (Homo sapiens, UniProt Q13526)
T1 construct: purchased R&D Systems
Assay: ELEBA primary screening assay of the library
Format: binding
Conditions: separate plate of groups A and B (L2 control 85.0443); crude library members; DMSO = 100%; mean of N = 2
Description: The library was screened by the ELEBA we reported previously.[44] The crude products resulting from diethyl ether precipitation were used for the primary and secondary ELEBA without additional purification. The concentrations of the crude products were estimated based on quantitative yields; actual concentrations were thus lower, depending on yield and purity. The library products were dissolved in DMSO as stock solutions for assays. […] Recombinant human Pin1 conjugated to horseradish peroxidase (Pin1–HRP) was used in the binding assays.[44] Fmoc-VPRpTPVGGGK-NH2 L2 was used as the positive control and DMSO was used as the negative control on each plate. The percent of Pin1–HRP bound to the plate was calculated by normalizing the binding with DMSO to be 100%. In the primary assays (Figure S1), 14 of the best library members were identified: 1{2,d}, 1{18,f}, 1{20,f}, 1{10, l}, 1{13, l}, 1{18, l}, 1{20, l}, 1{10, n}, 1{18, n}, 1{19, n}, 1{2, n}, 1{20, n}, 1{14, o}, 1{3, o}. In the secondary assay, these ligands were measured again at 270 μM, and three hits, 1{2, d}, 1{18, l} and 1{2, n}, were chosen for further analysis (Figure 3).
The Pin1 WW domain ligand, Fmoc–VPRpTPVGGGK–NH2, (100 μL/well, 245 μM stock solution) was covalently attached to a 96-well plate through the ε-amino group of the Lys side chain at pH 11.0, as published.[44] Ligands were dissolved in DMSO at stock concentrations of ca. 50 mM by weight. Competitive binding with plate-linked Fmoc–VPRpTPVGGGK–NH2L1 of pSer–Pro dipeptides was measured at ca. 600 μM for primary screening. In the primary assays, all library members were screened with the crude products. 1{1-21, d} were measured as mixtures of cis- and trans-isomers. Library members synthesized from racemic reagents, such as 1{1-21, c}, 1{1-21, l}, 1{1-21, q}, 1{3, a-q} and 1{8, a-q} were measured as diastereomeric mixtures. The library members were dissolved in DMSO as stock solutions with a concentration of about 37 mM based on estimated yields. The DMSO stock solution of each compound (4 μL) was added into a solution of recombinant Pin1–HRP (R&D Systems) in a PBS buffer with 2% BSA (pH = 7.3). DMSO (4 μL) was used as a negative control. The final volume of the solution was 250 μL, the final concentration of Pin1–HRP was 200 pM, and the estimated final compound concentration was 590 μM. The resulting solution was preincubated for 30 min at ambient temperature, and was added into two wells (100 μL each, for assay in duplicate) of the ligand-linked plate. The solutions were incubated for another 1 h. The solutions were removed by inverting and shaking the plate, and the plate was washed with buffer ([…], and 0.05% Tween 20 in PBS at pH 7.3) three times. A 1:1 solution of hydrogen peroxide and 3,3,5,5′-tetramethylbenzidine (100 μL) was added into each plate well, and incubated in the dark for 20 min. A 2N H2SO4 solution (50 μL) was added to each well to quench the reaction, and the absorbance of was determined at 450 nm. The percentage of Pin1–HRP bound to the plate (% binding) was calculated by eq 1. To calculate the absorbance of a plate well in eq 1, the blank ligand-linked plate was predetermined at the same wavelength, and the absorbance of the blank well was subtracted from the absorbance of the same well containing the final solution. [drawing 2] 1 […]
The Fmoc-Ser(2- […]
cyanoethylphosphate)-OH product was cleaved from the resin with TFA. 1H NMR indicated the presence of the Fmoc group, implying that the substrate was successfully attached to the resin (data not shown). To develop the coupling methods, 2-(2-naphthyl)ethylamine and propionic acid were reacted with the pSer–Pro resin. The resulting propanoyl-pSer–Pro–(2-(2-naphthyl)ethyl)-amide (1H NMR below) was excluded from the library assays.
Figure S1 (following pages). Ligands (group A – O) were screening using ELEBA at ca. 266 µM.
Fmoc-VPRpTPVGGGK-NH2 L2 was used as positive control at 76-87 µM from stock solutions […]
of 4.3-4.8 mM. […]

T1 sequence (Q13526 whole entry, the tested form may be a part): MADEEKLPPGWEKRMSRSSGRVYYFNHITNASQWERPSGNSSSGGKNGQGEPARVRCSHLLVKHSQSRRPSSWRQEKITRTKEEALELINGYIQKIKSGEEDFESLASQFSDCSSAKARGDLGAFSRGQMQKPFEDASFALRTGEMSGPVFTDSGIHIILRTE

Row | Structure (SMILES) | % of Pin1-HRP bound to plate-linked ligand
1 | O=C(C=Cc1c[nH]cn1)NC(COP(=O)(O)O)C(=O)N1CCCC1C(=O)N1CCCC1 (centres unmarked) [1{1,b}] | 117.035%
2 | O=C(C=Cc1c[nH]cn1)NC(COP(=O)(O)O)C(=O)N1CCCC1C(=O)NCCc1ccc(O)cc1 (centres unmarked) [1{4,b}] | 124.444%
3 | CCN(CC)CCCCN(C)C(=O)[C@@H]1CCCN1C(=O)[C@H](COP(=O)(O)O)NC(C)=O [1{7,a}] | 99.5048%
4 | CC(=O)NC(COP(=O)(O)O)C(=O)N1CCCC1C(=O)N1CCC(N2CCCCC2)CC1 (centres unmarked) [1{13,a}] | 109.315%
5 | CC1CCCCN1CCCNC(=O)C1CCCN1C(=O)C(COP(=O)(O)O)NC(=O)C=Cc1c[nH]cn1 (mixture of isomers) [1{8,b}] | 102.481%
6 | CC(=O)NC(COP(=O)(O)O)C(=O)N1CCCC1C(=O)NCCCn1ccnc1 (centres unmarked) [1{12,a}] | 109.194%
7 | CC(=O)N[C@@H](COP(=O)(O)O)C(=O)N1CCC[C@H]1C(=O)N1CCCCC1 [1{19,a}] (Ac-[pS]-Pro-Piperidide) | 116.14%
8 | CC(=O)NC(COP(=O)(O)O)C(=O)N1CCCC1C(=O)NCCc1ccc2ccccc2c1 (centres unmarked) [1{21,a}] | 113.792%
9 | O=C(C=Cc1c[nH]cn1)NC(COP(=O)(O)O)C(=O)N1CCCC1C(=O)Nc1ccc2[nH]ncc2c1 (centres unmarked) [1{2,b}] | 113.209%
10 | CC(=O)N[C@@H](COP(=O)(O)O)C(=O)N1CCC[C@H]1C(=O)Nc1ccc2[nH]ncc2c1 [1{2,a}] | 115.042%
11 | O=C(C=Cc1c[nH]cn1)NC(COP(=O)(O)O)C(=O)N1CCCC1C(=O)NCCc1c[nH]cn1 (centres unmarked) [1{9,b}] | 117.354%
12 | O=C(C=Cc1c[nH]cn1)NC(COP(=O)(O)O)C(=O)N1CCCC1C(=O)NCCCn1ccnc1 (centres unmarked) [1{12,b}] | 94.4757%
13 | CC(=O)N[C@@H](COP(=O)(O)O)C(=O)N1CCC[C@H]1C(=O)NC1CCN(Cc2ccccc2)CC1 [1{15,a}] | 110.698%
14 | CC(=O)NC(COP(=O)(O)O)C(=O)N1CCCC1C(=O)NCCCCNC(=N)N (centres unmarked) [1{16,a}] (Ac-[pS]-Pro-Agmatine; configuration not given here) | 112.945%
15 | CC(=O)NC(COP(=O)(O)O)C(=O)N1CCCC1C(=O)NCCc1ccc(O)cc1 (centres unmarked) [1{4,a}] | 120.879%
16 | O=C(C=Cc1c[nH]cn1)NC(COP(=O)(O)O)C(=O)N1CCCC1C(=O)NCCc1ccc2ccccc2c1 (centres unmarked) [1{21,b}] | 77.3223%
17 | CC(=O)NC(COP(=O)(O)O)C(=O)N1CCCC1C(=O)N(C)CC(C)c1ccccc1 (mixture of isomers) [1{3,a}] | 118.382%
18 | O=C(/C=C/c1c[nH]cn1)N[C@@H](COP(=O)(O)O)C(=O)N1CCC[C@H]1C(=O)N1CCC(N2CCCCC2)CC1 [1{13,b}] | 96.4764%
19 | CC(CN(C)C(=O)C1CCCN1C(=O)C(COP(=O)(O)O)NC(=O)C=Cc1c[nH]cn1)c1ccccc1 (mixture of isomers) [1{3,b}] | 124.358%
20 | O=C(/C=C/c1c[nH]cn1)N[C@@H](COP(=O)(O)O)C(=O)N1CCC[C@H]1C(=O)NNC(=O)c1ccco1 [1{18,b}] | 87.6813%
21 | COC(=O)C=C(C)NC(=O)[C@@H]1CCCN1C(=O)[C@H](COP(=O)(O)O)NC(C)=O [1{6,a}] | 116.564%

Row | Structure (SMILES) | % of Pin1-HRP bound to plate-linked ligand
22 | CC(=O)N[C@@H](COP(=O)(O)O)C(=O)N1CCC[C@H]1C(=O)N1CCOCC1 [1{20,a}] (Ac-[pS]-Pro-Morpholide) | 115.484%
23 | O=C(C=Cc1c[nH]cn1)NC(COP(=O)(O)O)C(=O)N1CCCC1C(=O)N1CCN(c2ncccn2)CC1 (centres unmarked) [1{10,b}] | 93.9893%
24 | CN(CCc1ccccn1)C(=O)C1CCCN1C(=O)C(COP(=O)(O)O)NC(=O)C=Cc1c[nH]cn1 (centres unmarked) [1{5,b}] | 113.92%
25 | CC(=O)N[C@@H](COP(=O)(O)O)C(=O)N1CCC[C@H]1C(=O)NCCc1c[nH]c2ccccc12 [1{14,a}] | 120.534%
26 | O=C(C=Cc1c[nH]cn1)NC(COP(=O)(O)O)C(=O)N1CCCC1C(=O)N1CCCCC1 (centres unmarked) [1{19,b}] | 97.5722%
27 | CC(=O)N[C@@H](COP(=O)(O)O)C(=O)N1CCC[C@H]1C(=O)NNC(=O)c1ccco1 [1{18,a}] | 102.518%
28 | CC(=O)NC(COP(=O)(O)O)C(=O)N1CCCC1C(=O)NCCCN1CCCCC1C (mixture of isomers) [1{8,a}] | 108.888%
29 | CC(=O)NC(COP(=O)(O)O)C(=O)N1CCCC1C(=O)N1CCCC1 (centres unmarked) [1{1,a}] (Ac-[pS]-Pro-Pyrrolidide; configuration not given here) | 111.106%
30 | CC(=O)N[C@@H](COP(=O)(O)O)C(=O)N1CCC[C@H]1C(=O)NCCCCCCN [1{11,a}] | 74.9059%
31 | N=C(N)NCCCCNC(=O)[C@@H]1CCCN1C(=O)[C@H](COP(=O)(O)O)NC(=O)/C=C/c1c[nH]cn1 [1{16,b}] | 94.5777%
32 | CC(=O)N[C@@H](COP(=O)(O)O)C(=O)N1CCC[C@H]1C(=O)N1CCN(c2ncccn2)CC1 [1{10,a}] | 102.123%
33 | O=C(/C=C/c1c[nH]cn1)N[C@@H](COP(=O)(O)O)C(=O)N1CCC[C@H]1C(=O)NCCCN1CCOCC1 [1{17,b}] | 94.8602%
34 | CC(=O)NC(COP(=O)(O)O)C(=O)N1CCCC1C(=O)NCCc1c[nH]cn1 (centres unmarked) [1{9,a}] | 109.367%
35 | CC(=O)N[C@@H](COP(=O)(O)O)C(=O)N1CCC[C@H]1C(=O)N(C)CCc1ccccn1 [1{5,a}] | 108.292%
36 | COC(=O)C=C(C)NC(=O)C1CCCN1C(=O)C(COP(=O)(O)O)NC(=O)C=Cc1c[nH]cn1 (centres unmarked) [1{6,b}] | 111.464%
37 | NCCCCCCNC(=O)[C@@H]1CCCN1C(=O)[C@H](COP(=O)(O)O)NC(=O)/C=C/c1c[nH]cn1 [1{11,b}] | 79.8617%
38 | CCN(CC)CCCCN(C)C(=O)[C@@H]1CCCN1C(=O)[C@H](COP(=O)(O)O)NC(=O)/C=C/c1c[nH]cn1 [1{7,b}] | 108.279%
39 | CC(=O)NC(COP(=O)(O)O)C(=O)N1CCCC1C(=O)NCCCN1CCOCC1 (centres unmarked) [1{17,a}] | 117.069%
40 | O=C(C=Cc1c[nH]cn1)NC(COP(=O)(O)O)C(=O)N1CCCC1C(=O)NCCc1c[nH]c2ccccc12 (centres unmarked) [1{14,b}] | 109.953%
41 | O=C(C=Cc1c[nH]cn1)NC(COP(=O)(O)O)C(=O)N1CCCC1C(=O)NC1CCN(Cc2ccccc2)CC1 (centres unmarked) [1{15,b}] | 98.3254%
